Activity calls are given as the source filed them. No cut-off for these calls is given here.
Columns and labels:
[1] = Antioxidant activity assessed as ABTS radical scavenging activity after 6 mins by cation decolorization assay; assay type: functional
[2] = Antioxidant activity assessed as superoxide radical anion scavenging activity after 30 mins by xanthine/xanthine oxidase method; assay type: functional
Nucleic Acid = experiment: Protection against ferrous and hydrogen peroxide-induced single strand breakage of pBR322 DNA at 50 uM after 30 mins using ethium bromide staining; conditions: Escherichia coli
[3] = tested on: Radical scavenging activity; experiment: Antioxidant activity assessed as DPPH radical scavenging activity after 30 mins; assay type: functional
[4] = Antioxidant activity against ferrous and hydrogen peroxide-induced hydroxyl radical assessed inhibition of radical-mediated 2-deoxyribose damage at 100 uM after 45 mins; assay type: functional

Compound: CCCC(=O)Oc1c(O)c(-c2ccc(O)cc2)c(OC(=O)CCc2ccccc2)c(O)c1-c1ccc(O)cc1 [CURTISIAN S]
- IC50 [1]: 8.16 µM
- IC50 [2]: > 500 µM
- Activity (Nucleic Acid): Active
- IC50 [3]: > 500 µM

Compound: CC(=O)O[C@H](C)CC(=O)Oc1c(O)c(-c2ccc(O)cc2)c(OC(=O)C[C@@H](C)OC(C)=O)c(O)c1-c1ccc(O)cc1 [CURTISIAN M]
- IC50 [1]: 8.15 µM
- IC50 [2]: > 500 µM
- Activity (Nucleic Acid): Active
- Activity [4]: Active
- IC50 [3]: > 500 µM

Compound: CC(=O)Oc1c(OC(=O)CCc2ccccc2)c(-c2ccc(O)cc2)c(OC(=O)C[C@@H](C)O)c(OC(=O)C[C@@H](C)O)c1-c1ccc(O)cc1 [CURTISIAN V]
- IC50 [1]: > 500 µM
- IC50 [2]: > 500 µM
- Activity (Nucleic Acid): Active
- IC50 [3]: > 500 µM

Compound: O=C(O)/C=C/c1ccc(O)c(O)c1 [CAFFEIC ACID]
- IC50 [1]: 5.37 µM
- IC50 [2]: 58 µM
- IC50 [3]: 21.1 µM

Compound: Cc1c(C)c2c(c(C)c1O)CCC(C)(C(=O)O)O2 (stereo not drawn) [TROLOX]
- IC50 [1]: 7.91 µM
- IC50 [2]: > 500 µM
- Activity (Nucleic Acid): Active
- IC50 [3]: 33 µM

Compound: CC(=O)Oc1c(O)c(-c2ccc(O)cc2)c(OC(=O)C[C@@H](C)OC(C)=O)c(O)c1-c1ccc(O)cc1 [CURTISIAN N]
- IC50 [1]: 5.5 µM
- IC50 [2]: > 500 µM
- Activity (Nucleic Acid): Active
- Activity [4]: Active
- IC50 [3]: > 500 µM

Compound: O=C(CCc1ccccc1)Oc1c(O)c(-c2ccc(O)cc2)c(OC(=O)CCc2ccccc2)c(O)c1-c1ccc(O)cc1 [CURTISIAN R]
- IC50 [1]: 8.02 µM
- IC50 [2]: > 500 µM
- Activity (Nucleic Acid): Active
- IC50 [3]: > 500 µM

Compound: CC(=O)O[C@H](C)CC(=O)Oc1c(O)c(-c2ccc(O)cc2)c(OC(=O)CCc2ccccc2)c(O)c1-c1ccc(O)cc1 [CURTISIAN J]
- IC50 [1]: 13.5 µM
- IC50 [2]: > 500 µM
- Activity (Nucleic Acid): Active
- IC50 [3]: > 500 µM

Compound: C[C@@H](O)CC(=O)Oc1c(O)c(-c2ccc(O)cc2)c(OC(=O)CCc2ccccc2)c(O)c1-c1ccc(O)cc1 [CURTISIAN K]
- IC50 [1]: 11.3 µM
- IC50 [2]: > 500 µM
- Activity (Nucleic Acid): Active
- Activity [4]: Active
- IC50 [3]: > 500 µM

Compound: CC(=O)Oc1c(OC(=O)C[C@@H](C)O)c(-c2ccc(O)cc2)c(OC(C)=O)c(OC(=O)C[C@@H](C)O)c1-c1ccc(O)cc1 [CURTISIAN U]
- IC50 [1]: > 500 µM
- IC50 [2]: > 500 µM
- Activity (Nucleic Acid): Active
- IC50 [3]: > 500 µM

Compound: CC(=O)Oc1c(O)c(-c2ccc(O)cc2)c(OC(=O)CCc2ccccc2)c(O)c1-c1ccc(O)cc1 [CURTISIAN P]
- IC50 [1]: 6.44 µM
- IC50 [2]: > 500 µM
- Activity (Nucleic Acid): Active
- IC50 [3]: > 500 µM

Compound: CC(=O)Oc1c(O)c(-c2ccc(O)cc2)c(OC(=O)C[C@@H](C)O)c(O)c1-c1ccc(O)cc1 [CURTISIAN L]
- IC50 [1]: 18.6 µM
- IC50 [2]: > 500 µM
- Activity (Nucleic Acid): Active
- IC50 [3]: > 500 µM

Compound: CC(=O)O[C@H](C)CC(=O)Oc1c(O)c(-c2ccc(O)cc2)c(OC(=O)c2ccccc2)c(O)c1-c1ccc(O)cc1 [CURTISIAN T]
- IC50 [1]: 8.43 µM
- IC50 [2]: > 500 µM
- Activity (Nucleic Acid): Active
- IC50 [3]: > 500 µM

Compound: CC(=O)O[C@H](C)CC(=O)Oc1c(O)c(-c2ccc(O)cc2)c(OC(=O)C[C@@H](C)O)c(O)c1-c1ccc(O)cc1 [CURTISIAN I]
- IC50 [1]: 60.4 µM
- IC50 [2]: > 500 µM
- Activity (Nucleic Acid): Active
- IC50 [3]: > 500 µM

Compound: CC(=O)N(O)CCCCCNC(=O)CCC(=O)N(O)CCCCCNC(=O)CCC(=O)N(O)CCCCCN
- Activity (Nucleic Acid): Active

Compound: COc1ccc(O)c(C(C)(C)C)c1.COc1ccc(O)cc1C(C)(C)C [BUTYLATED HYDROXYANISOLE]
- IC50 [1]: 10.7 µM
- IC50 [2]: > 500 µM
- Activity (Nucleic Acid): inactive
- IC50 [3]: 83 µM

Compound: CC(=O)Oc1c(O)c(-c2ccc(O)cc2)c(OC(C)=O)c(O)c1-c1ccc(O)cc1
- IC50 [1]: 8.77 µM
- IC50 [2]: > 500 µM
- Activity (Nucleic Acid): Active
- Activity [4]: Active
- IC50 [3]: > 500 µM

Compound: CCCC(=O)Oc1c(O)c(-c2ccc(O)cc2)c(OC(C)=O)c(O)c1-c1ccc(O)cc1 [CURTISIAN O]
- IC50 [1]: 7.11 µM
- IC50 [2]: > 500 µM
- Activity (Nucleic Acid): Active
- Activity [4]: Active
- IC50 [3]: > 500 µM

Compound: CC(=O)Oc1c(OC(=O)C[C@@H](C)O)c(-c2ccc(O)cc2)c(OC(=O)CCc2ccccc2)c(OC(=O)C[C@@H](C)O)c1-c1ccc(O)cc1 [CURTISIAN E]
- IC50 [1]: > 500 µM
- IC50 [2]: > 500 µM
- Activity (Nucleic Acid): Active
- Activity [4]: Active
- IC50 [3]: > 500 µM

Reference: ChEMBL document CHEMBL1152939, “p-Terphenyls from the fruiting bodies of Paxillus curtisii and their antioxidant properties” (Bioorg Med Chem, 2009)
